The record followed here is ChEMBL document CHEMBL1799912, “Benzodihydrofurans from Cyperus teneriffae” (J Nat Prod, 2011).

This experiment in a line: Antiestrogenic activity in human MCF7/BUS cells assessed as inhibition of 17beta-estradiol-induced cell proliferation at 10 uM after 6 days by E-Screen test. In kind it is functional, cell-based.

The source made the active and inactive calls. The calls are words filed in the database; no cut-off is given here.

Consider `COc1ccc(-c2oc3cc(O)cc(O)c3c(=O)c2O)cc1O`, for which the outcome was inactive. For `C=C(C)[C@@H]1Cc2c(c(OC)c(O)c(C(C)=O)c2OC)O1` the value was “inactive”. For `O=C1CC(c2ccc(O)c(O)c2)Oc2cc(O)cc(O)c21` (configuration not stated) the value was “inactive”. The result for `COc1cc(OC)c2c(c1)O/C(=C\c1ccc(OC)c(O)c1)C2=O` reads “inactive”; that for `COc1cc(O)c(CC=C(C)C)c(O)c1C(C)=O`, “inactive”.

Take `C=C(C)[C@@H]1Cc2c(c(OC)c3occ(C)c3c2OC)O1`: the outcome was inactive. As to `COc1cc(OC)c2c(c1)O/C(=C\c1ccc(OC)c(OC)c1)C2=O`, the result was inactive.
